Assay results published in paper PMC9144936, “New Cu^+2 Complexes with N-Sulfonamide Ligands: Potential Antitumor, Antibacterial, and Antioxidant Agents” (Molecules, 2022).

Tests used:
Assay type in all cases: cell-based
[1] = tested on: human radical growth phase melanoma cell line (WM35); experiment: MTT cytotoxicity assay, WM35; conditions: for IC50: WM35 cells, MTT
Protocol: Three cell lines were used to determine the cytotoxicity of the complexes, a human cervical carcinoma line (HeLa), a human radical growth phase melanoma cell line (WM35), and a normal fibroblastic epithelial cell line (HFL1) using the MTT method. The cells were exposed to C1 and C2 complexes in different concentrations (50, 25, 12.5, 2, and 0.2 µM) at 24, 48, and 72 h. As positive contro, cisplatin was used.
To determine the cytotoxicity of the copper complexes, three cell lines were used: a human cervical carcinoma line (HeLa), a human radical growth phase melanoma cell line (WM35), and a normal fibroblastic epithelial cell line (HFL1). The cell lines were obtained from ATCC (American Type Cell Collection, Manassas, VA 20110-2209, USA) and were maintained in DMEM (Sigma-Aldrich, Saint Louis, Missouri, USA) supplemented with 10% fetal bovine serum (Hyclone), 1 mM glutamine (Sigma-Aldrich), and 1% antibiotic antimycotic 100× (Sigma-Aldrich). The cells were cultured at 37 °C in an atmosphere of 5% CO2 and 95% relative humidity.
The cytotoxicity assays were performed using the MTT assay (3-(4,5-dimethylthiazol-2-yl)-2,5-diphenyl tetrazolium bromide-Sigma Aldrich). Cells were plated at a density of 1 × 10^5 cells/well in 96-well plates for 24 h in normal propagation media. The cultures were then exposed to C1 and C2 complexes in different concentrations (50, 25, 12.5, 2, and 0.2 µM). The complexes were first solubilized in DMSO (Sigma) and then serial dilutions in media were performed until the final concentration of DMSO was less than 1%. As a positive control, cisplatin (Ebewe Pharma Ges.m.b.H. Nfg. KG, Austria) was used, in the same concentrations as the complexes. As a negative control, cell lines cultivated in normal expansion medium with the same amount of DMSO added were used. The cellular viability was determined using the MTT assay at 24, 48, and 72 h, respectively. Formazan particles were solubilized with DMSO and absorbances were determined at 550 nm using a microplate reader (Bio-Rad, Hercules, CA, USA). The cytotoxic activity, expressed as IC50 values representing the complex solution required to inhibit 50% of the cell proliferation, were calculated from the calibration curve by nonlinear regression. Each experiment was carried out in triplicate.

[2] = tested on: Bacillus cerreus ATCC 14579; experiment: Disk diffusion method, B. cerreus; conditions: complexes 5 µL of 1 mg/mL; 25 µg Amoxicillin, 5 µg Norfloxacin; 24 h, 37 °C
Text: The disk diffusion method was used to determine the antibacterial activity of the C1 and C2 copper complexes on four reference microbial strains, two Gram-positive (Staphylococcus aureus and Bacillus cerreus) and two Gram-negative (Escherichia coli and Pseudomonas aeruginosa) strains. The disk diffusion method was used to determine the antibacterial activity of the C1 and C2 copper complexes. The method was adapted for the purposes of the current study, according to the standards developed by the Clinical and Laboratory Standards Institute. Four reference microbial strains, two Gram-positive (Staphylococcus aureus ATCC […] and Bacillus cerreus ATCC 14579) and two Gram-negative (Escherichia coli ATCC 10536 and Pseudomonas aeruginosa ATCC 27853) strains, were used for in vitro susceptibility testing. These reference microbial strains were obtained from the American Type Culture Collection (ATCC, Manassas, VA, USA). As positive controls, Amoxicillin (Oxoid Ltd., Basingstoke, UK) and Norfloxacin (Sigma-Aldrich) were used. For each of the four species, an initial suspension of bacterial cultures was inoculated on nutrient agar plates (Merck KGaA, Darmstadt, Germany), incubated for 24 h at 37 ± 2 °C and resuspended in a physiological saline buffer to a […] concentration (on a 0.5 McFarland scale), and further inoculated on Muëller Hinton agar plates (Merck KGaA, Darmstadt, Germany). […] After inoculation, the medium surface was dried and 8 wells were radially drilled 1.5 cm from the outer edge, 3 cm apart. From aliquot samples of 1 mg/mL of each copper complex dissolved in DMSO and incorporated in sterile liquid medium, 5 μL was placed in each of the 8 wells and left for 30 min to diffuse into the agar plates. The plates were then incubated for 24 h at 37 ± 2 °C. Then, 25 μg Amoxicillin and 5 μg Norfloxacin served as a positive controls, while DMSO 0.75% was used as a negative control. Readings were conducted by measuring the diameter of the inhibition zone (Halo Zone Test, in mm). The germ sensitivity of the copper complexes was estimated by comparing the diameter of the inhibition area to that generated by the regular antibiotics with known inhibition values. […] All tests were triplicated, and the measured diameters of the inhibition zone were expressed (in mm) as mean ± standard deviation.

[3] = tested on: Staphylococcus aureus ATCC 6538P; experiment: MIC, serial broth microdilution, S. aureus; conditions: 24 h, 37 °C
Protocol: (§1) The values of MIC, defined as the lowest concentration of antimicrobial complex that prevents visible growth of germs, are presented in Table S4 in the Supplementary Material. To quantify the copper complexes effectiveness as antibacterial agents, their minimum inhibitory concentrations (MICs) were determined using the serial broth microdilution method described by Quinn et al. and Markey et al.. The method was adapted for the purposes of the current study, according to the standards developed by the Clinical and Laboratory Standards Institute. The tests were performed on the same Gram-positive and Gram-negative reference microbial strains. Ten successive dilutions of the copper complexes solutions (1/2 to 1/1024) in nutrient broth (Merck KGaA, Darmstadt, Germany) were performed and then were placed in sterile microplates (one each for every copper complex). The microplates were incubated at 37 ± 2 °C for 24 h. Comparisons of the amount of bacterial growth in each well containing copper complexes solutions with the amount of growth in the growth control wells were performed and the maximal dilution for which the tested copper complexes inhibited bacterial growth was determined.

[4] = tested on: Bacillus cerreus ATCC 14579; experiment: MIC, serial broth microdilution, B. cerreus; conditions: 24 h, 37 °C
Protocol: as §1

[5] = tested on: Escherichia coli ATCC 10536; experiment: MIC, serial broth microdilution, E. coli; conditions: 24 h, 37 °C
Protocol: as §1

| Substance | IC50 value compared with cisplatin ([1]; WM35 cell lines, 24 h) | IC50 ([1]; 24 h) [µM] | IC50 ([1]; 48 h) [µM] | IC50 ([1]; 72 h) [µM] | Halo Zone Test (diameter of the inhibition zone) [2] [mm] | MIC [3] [µg/mL] | MIC [4] [µg/mL] | MIC [5] [µg/mL] |
| --- | --- | --- | --- | --- | --- | --- | --- | --- |
| [Cu(N-(5-Ethyl--[1,3,4]-Thiadiazole-2-yl) Naphtalenesulfonamidate)2(py)2(H2O)] [C2] | about two times lower | 13 ± 0.15 | 8.11 ± 0.13 | 4.66 ± 0.07 | 12 ± 0.34 | 0.202 | 0.293 | 0.184 |
| [Cu(N-(5-(4-Methylphenyl)-[1,3,4]-Thiadiazole-2-yl) Naphtalenesulfonamidate)2(H2O)3] [C1] | – | 41.35 ± 0.19 | 23.87 ± 0.17 | 15.42 ± 0.08 | 11 ± 0.25 | 0.289 | 0.304 | 0.231 |
